Experimental data reported in patent US8592419B2, “Ceramides and apoptosis-signaling ligand” (MUSC Foundation for Research Development, priority 2004, dated 2013).

How the values were obtained:
Caspases 3 and 7 = assay: Caspase 3/7 activity assay; type: cell-based, human; details: DU145 cells, 24 hours treatment
Experimental: Caspase 3/7 Activity Assay. Cells were seeded overnight in clear bottom black 96 well plates (Corning; Acton Mass.). The next day, medium was removed and replaced with medium containing vehicle or LCL204 at indicated concentrations. After 24 hours treatment, Caspases 3 and 7 activities were measured using Apo-ONE Homogeneous Caspase 3/7 assay according to the manufacturer's instructions (Promega). Fluorescence was measured using a Fluostar dual fluorescence/absorbance plate reader (BMG Laboratories; Durham, N.C., USA) with 485 nm excitation and 520 nm emission filter set.

DU145 xenografts = assay: DU145 prostate cancer xenografts in nude mice
Description: One of the problems with cancer gene therapy as it is currently practiced is the issue of delivery of gene therapy vectors to every tumor cell in order to effect death of the tumor. […] The inventors devised a model of molecular cell killing in a solid tumor in which only perhaps up to 30% of the cells are infected by the virus. Since the ceramide analogs of the invention are acid CDase inhibitors which sensitize the cells to this type of cell death, an in vivo experiment in which prostate cancer xenografts, in this case DU145 cells, were grown in nude mice and treated sequentially with the acid Cdase inhibitor LCL204 followed by the AdGFPFasL virus. […] The LCL204 was administered at 0, 72 and 144 hours and the virus (1×10^9 pfu) at 10 and 82 hours.

Bak = Bak protein level and Bak foci (Western blot, confocal microscopy); type: cell-based, human
Experimental: Immunoblot analysis. Cells were seeded in 60mm plates as described above and treated accordingly. Cells were lifted by gently scraping the plates, washed once with ice cold PBS and then lysed in lysis buffer (PBS, 1% Triton X-100, 10% glycerol) containing protease inhibitors pepstatin A (0.5 μg/ml), leupeptin (0.5 μg/ml), aprotinin (5 μg/ml), and PMSF (100 μg/ml) for 10 minutes on ice. Insoluble material was removed by centrifugation at 14,000 rpm for 15 minutes at 4° C. The supernatants were then supplemented with SDS at a final concentration of 2% and stored at −80° C. Protein concentrations were determined using the DC Protein Assay (BioRad Laboratories; Hercules, CA, USA) according to the manufacturer's instructions. 50 μg of protein per sample (unless otherwise indicated) were separated on NuPAGE 4-12% Bis-Tris gels (Invitrogen; Carlsbad, CA, USA) and transferred to nitrocellulose membranes (BioRad). Following transfer, membranes were blocked for 1 hour at room temperature in Tris-buffered saline (TBS) containing 0.1% Tween-20 and 5% nonfat dry milk and incubated overnight at 4° C. with primary antibody at a dilution of 1:2,000(actin), 1:1,000(cytochrome c, COX IV, Bax, Bak, p53, p38, P-p38), 1:500(P-JNK, JNK), 1:250 (AC, p73), or 1:400(LAMP-1, cathepsin B). Overnight incubations were performed in 5% milk in TBS-Tween. Following overnight incubation, membranes were washed three times for 10 minutes each in TBS-Tween and incubated for 1 hour at room temperature with secondary antibody in 5% milk TBS-Tween at a dilution 1:5,000 (goat anti-mouse IgG) or 1:50,000 (goat anti-rabbit). Membranes were then washed three times more and incubated for 5 minutes at room temperature with Super Signal HRP substrate (Pierce Biotechnology Inc.; Rockford, IL, USA).
Confocal Microscopy and Immunocytochemistry. DU145 cells were grown in 4.3 cm^2 chamber slides (Nalge Nunc) and transfected with YFPmito alone or with the dominant-negative inhibitor of Drp1(K38A) (64) using FuGENE6 (Roche; Indianapolis, IN) according to the manufacturer's instructions using 1 μg of total DNA per chamber. 24 hr after transfection and 30 min prior to treatment with 15 μM LCL204, cells were exposed to zVAD-fmk (50 μM). The slides were fixed with 4% paraformaldehyde for 20 min then permeabilized with 0.2% Triton X-100 for 15 min, followed by blocking with 4% bovine serum albumin for 45 min at RT. Cells were probed with rabbit polyclonal 2-14 anti-Bak antibody (1:5000; BioChem) for 2 hr then stained with goat anti-rabbit Alexa Fluor 543 antibodies (1:250; Molecular Probes) for 45 min. After washing, cells were imaged using the 63x objective of an LSM 510 Zeiss confocal microscope.

DU145 cells = assay: MTS cell viability assay in DU145 cells; type: cell-based, human; details: in vitro
Experimental: MTS cytotoxicity assays for LCL204 treatments. Cell viability was determined using the CellTiter 96 AQueous One Solution Cell Proliferation Assay (Promega; Madison, Wis., USA). 1×10^4 cells per well were seeded in 96-well plates overnight. The next day media was removed and replaced with either 100 μl media with vehicle control or media containing LCL204 at desired concentrations. Assays were carried out according to manufacturer's instruction as previously described (60). For experiments using enzyme inhibitors and LCL204, media was removed and replaced with 50 μl media containing vehicle only or indicated inhibitor. Cells were pretreated 1 hour at 37° C. before adding 50 μl media containing vehicle, inhibitor only, LCL204 only (2× concentration), or a combination. The remainder of the assay was carried out as described above.

AC mRNA = assay: Reverse transcriptase PCR of AC mRNA; type: cell-based, human; details: 10 μM, DU145 cells
Experimental: Reverse Transcriptase PCR. DU145 cells were seeded in 6-well plates as described above. […] Cells were collected at indicated time points and total RNA was extracted using RNAqueous-4PCR kit (Ambion Inc.; Austin, TX), including the DNase I treatment step to remove DNA contamination. The level of transcripts of AC was assayed by two-step RT-PCR protocol (Ambion) and Rig/S15 was used as an internal control. The sequence of the primer for amplification of AC is as followed: [NT] 375 bp. All reactions were performed in a programmable thermal cycler (reverse transcription at 55° C. for 1 hour; PCR at 95° C., 3 minutes; 95° C., 30 second; 52° C., 1 minute and extension at 72° C. for 1 minute; final extension at 72° C., 10 minutes).

CCCCCCCCCCCCCCN[C@H](CO)[C@H](O)c1ccc([N+](=O)[O-])cc1.Cl [LCL204, (1R,2R) D-threo-2-N-Tetradecylamino-1-(4′-nitrophenyl)-1,3-propandiol hydrochloride] was tested, and the executioner caspase activity (Caspases 3 and 7) was “dose-dependent executioner caspase activity”, the “tumor burden, combination of LCL204 and AdGFPFasL virus” value (DU145 xenografts; LCL204 at 0, 72 and 144 hours followed by virus at 10 and 82 hours) was “effectively reduce the tumor burden” and the “tumor growth, single agent” value (DU145 xenografts; LCL204 systemically at 0, 72 and 144 hours, virus 1×10^9 pfu at 10 and 82 hours) was “some modest effects”. For the same molecule, the “observable effect on the animal” value (DU145 xenografts; up to 75 mg/kg) was “no observable effect on the animal”, the “Bak protein levels over time” value (Bak; DU145 and PC-3 cells, 10 μM, 12 hours) was “accumulated Bak protein” and the “Bak protein levels versus concentration” value (Bak; DU145 cells, 12-hour treatment) was “concentration-dependent up-regulation”. The “Bak foci on the mitochondria membrane” value (Bak; DU145 cells, 20 hours, confocal microscopy) was “formation of Bak foci was detected”, the “Bak and p73 levels” value (Bak; PPC-1/pcDNA3 cells, 7.5 μM, 5 hours) was “up-regulation of both Bak and p73 levels” and the “potency as inducer of cell death compared with B13” value (DU145 cells) was “much more potent inducer of cell death than B13”. For the same molecule, the “AC mRNA levels” value (AC mRNA) was “no decrease in AC mRNA levels”.
